The values that follow are results of earlier work, collected in patent publication US7332183B2, “Multilayer dosage forms containing NSAIDs and triptans” (Pozen Inc., priority 2002, dated 2008).

The conditions of this data set: in vivo.

As for `CS(=O)(=O)c1ccc(C2=C(c3ccccc3)C(=O)OC2)cc1` [rofecoxib], the half life entry was “about 17 hours”. For the molecule `CCc1cccc2c3c([nH]c12)C(CC)(CC(=O)O)OCC3` (stereo not shown) [etodolac], the half life entry is reported as “about 7 hours”.

With `CC(C(=O)O)c1ccc(-c2ccccc2)c(F)c1` (stereo not shown) [flurbiprofen], the half life entry is given as “about 6 hours”. For `Cc1cccc(Nc2ccccc2C(=O)O)c1C` [mefanamic acid], the half life entry is given as “about 4 hours”.
